A short description of data set [1]: Plasma concentration of BI224436 in human subjects (clinical trial NCT01276990). Format: in vivo. As to conditions: plasma 24 hours after 200 mg oral doses; IC50 is lower.
Data set [2] has as its system NFAT promoter in Jurkat cells. As to the kind of experiment: NFAT-luciferase assay in Jurkat cells transfected with CAR constructs, co-cultured with ARH-77-10B5 cells. Format: cell-based. As to conditions: 3 μM BI224436, 48 hours. Here is the method: NFAT-luc2 Jurkat cells (Promega) were cultured in Jurkat media: RPMI medium 1640 (1×) without L-glutamine with phenol red (Gibco), 10% (v/v) Fetal Bovine Serum (FBS) Heat-Inactivated (Gibco), 1% (v/v) Minimum essential medium non-essential amino acids (MEM NEAA) (ThermoFisher), 1% (v/v) Sodium Pyruvate (Sigma), 1% (v/v) L-Glutamine (Gibco). ARH-77-10B5 cells were cultured in Jurkat media plus 1 mg/mL G418 (Thermo, 10131035). Cells were incubated at 37° C. with 5% CO2 for 48 hours. 20 μg of plasmid DNA from each construct was mixed with 8×10^6 NFAT-luc2 Jurkat cells and cells were transfected using the 4D-Nucleofector (Lonza) with cell Line SE Nucleofector kit (Lonza) by following manufacturer instructions with program CL-120. BI224436 compound (Chemexpress HY-18595) at a stock concentration of 100 mM in 100% DMSO (Sigma, D2650) was diluted in Jurkat media to achieve a stock concentration of 100 μM. Using the 100 μM BI224436 stock in Jurkat media, NFAT-luc2 Jurkat cells were incubated at a final compound concentration of 3 μM for 48 hours at 37° C. with 5% CO2. NFAT-luc2 Jurkat cells were then co-cultured (1×10^5 cells per well, 1:1 effector:target ratio) with ARH-77-10B5 cells (BCMA positive cells) for 6.5 hours. NFAT-luciferase luminescence was measured by using the Bio-Glo Luciferase Assay System (Promega G7940) (following manufacturer's instructions) and an EnSpire Multimode Plate Reader (Perkin Elmer).

Data set [3] concerns primary T-cells transduced with the HIV Integrase LEDGF/p75 OFF-switch CAR. The data set can be described thus: Cytokine release with titration of BI224436, primary T-cells transduced with Construct 13 (Example 6). Format: cell-based, human. How it is done: Lentiviral vector production and transduction of primary T-cells: Method for lentiviral production is described in Example 4 and method for primary T-cell transduction is described in Example 5.
Cytokine release: ARH-77-10B5 cells were cultured as described in Example 1. BI224436 compound at a stock concentration of 100 mM in 100% DMSO was diluted in Jurkat media to achieve a stock concentration of 100 μM. Each T-cell population was incubated at a final concentration of 10 μM, 3.3 μM, 1.1 μM, 0.37 μM, 0.12 μM, 0.04 μM, 0.013 μM, 0.004 μM, 0.001 μM or 0 μM (media alone) BI224436 in Jurkat media for 1 hour at 37° C. with 5% CO2. T-cells were then co-cultured (5×10^4 cells per well, 1:1 effector:target ratio) with ARH-77-10B5 cells (BCMA positive cells) for 24 hours in Jurkat media at 37° C. with 5% CO2. Cells were pelleted (1200 rpm, 5 min) and supernatants were collected. Supernatants were analysed for cytokine levels using MSD V-plex Proinflammatory Panel 1 Human Kit (MSD, K15049D-2) and MSD Sector Imager (MSD).

Data set [4] concerns primary T-cells transduced with the HIV Integrase LEDGF/p75 OFF-CAR. The data set can be described thus: Cytokine release by primary T-cells transduced with OFF-switch CAR (Example 5). Format: cell-based, human. The conditions noted are these: T-cells transduced with Construct 10 and 11; 10 μM, ARH-77-10B5, 24 hour. How it is done: Primary T-cell transduction and cytokine release: Peripheral blood mononuclear cells (PBMCs) from the fresh blood of two healthy human donors were isolated by density gradient centrifugation in Accuspin tubes (Sigma) containing 15 mL of Histopaque-1077 (Sigma) and following manufacturer's instructions. Cells were resuspended at 1×10^6 cells/mL in TEXMacs media (Miltenyi Biotec) containing 100 units/mL of IL-2 (Sigma) and TransAct beads (Miltenyi Biotec) and incubated for 48 hours at 37° C. with 5% CO2.
T-cells from the two donors were transduced with the lentiviral vectors encoding for CONSTRUCT 10 and CONSTRUCT 11. Transduction reactions were prepared to achieve an MOI of 5. T-cells were cultured in TEXMacs media (Miltentyi Biotec) with 100 units/mL of IL-2, fresh media was added every 3 days. ARH-77-10B5 cells were cultured as described in Example 1. BI224436 compound at a stock concentration of 100 mM in 100% DMSO was diluted in Jurkat media to achieve a stock concentration of 100 μM. Each T-cell population was incubated at a final concentration of 10 μM or 0 μM (media alone) BI224436 in Jurkat media for 1 hour at 37° C. with 5% CO2. […] Supernatants were analysed for cytokine levels using MSD V-plex Proinflammatory Panel 1 Human Kit (MSD, K15049D-2) and MSD Sector Imager (MSD).

The test system of data set [5] is ARH-77-10B5 cells. The data set can be described thus: xCelligence cytotoxicity assay. Format: cell-based. The conditions noted are these: T-cells transduced with Construct 10; 10 μM BI224436. How it is done:
Transduction of primary T-cells: Method described in Example 5
xCelligence cytotoxicity assay ARH-77-10B5 cells were as described in Example 1. BI224436 compound at a stock concentration of 100 mM in 100% DMSO was diluted in Jurkat media to achieve a stock concentration of 100 μM. xCelligence E-plates (ACEA, 06472460001) were coated with anti-CD40 tethering agent by following manufacturer's instructions for B-cell Killing (anti-CD40) Assay kit (ACEA, 8100004). Plates were inserted into the xCelligence station (ACEA) (37° C., 5% CO2) and allowed to equilibrate to 37° C. for 1 hour prior to taking background measurement. ARH-77-10B5 cells or Jurkat media were added to the plates (1×10^4 cells per well) and cultured for 20 h. Each T-cell population was incubated at a final concentration of 10 μM or 0 μM BI224436 in Jurkat media for 1 hour at 37° C. with 5% CO2. T-cells were added to the plates (1×10^4 cells per well, 1:1 effector:target ratio) and incubated in the xCelligence station for 24 hours. Data analysis was carried out using xCELLigence Immunotherapy Software (ACEA). The cell index for samples was normalized to the point of T-cell addition, then the normalized cell index for T-cells was divided by the normalized cell index of target cells alone to give the % viable cells at a given timepoint.

Data set [6] has as its system K562 BCMA cells. As to the kind of experiment: Flow cytometry cytotoxicity assay, BCMA-positive target cells. As to conditions: for Effect of BI224436 on cytotoxicity: 10 μM BI224436. Format: cell-based. How it is done: (§1) Isolation and transduction of CD4+ and CD8+ T-cells: Peripheral blood mononuclear cells (PBMCs) from the fresh blood of one healthy human donor was isolated by density gradient centrifugation in Accuspin tubes (Sigma) containing 15 mL of Histopaque-1077 (Sigma) and following manufacturer's instructions. CD4+ and CD8+ T cells were isolated using CD4 and CD8 microbeads (Miltenyi Biotec) and the AutoMACS Pro-separator (Miltenyi Biotec). Cells were resuspended at 1×10^6 cells/mL in TEXMacs media (Miltenyi Biotec) containing 100 units/mL of IL-7 (Sigma), 100 units/mL of IL-15 (Sigma) and TransAct beads (Miltenyi Biotec) and incubated for 48 hours at 37° C. with 5% CO2.
T-cells were transduced with lentiviral vectors encoding for CONSTRUCT 14 or CONSTRUCT 10. Transduced T-cells and untransduced (UT) T-cells were cultured in TEXMacs media (Miltenyi Biotec) with 100 units/mL of IL-7 (Sigma) and IL-15 (Sigma), and fresh media was added every 3 days. […] 1×10^5 of each T-cell population was stained with AlexaFluor 647 conjugated BCMA-Fc (generated in-house) to label theanti-BCMA scFv on the CARs. Measurements were made using a Cytoflex S (Beckman Coulter) and data analysed using FlowJo (FlowJo).
K562 BCMA cells (BCMA positive) were cultured in Jurkat media plus 0.8 mg/mL G418 (Gibco) and K562 cells (BCMA negative) were cultured in Jurkat media. Both cell lines were cultured at 37° C. with 5% CO2. BI224436 compound at a stock concentration of 100 mM in 100% DMSO (Sigma) was diluted in Jurkat media to achieve a stock concentration of 100 μM. K562 cells were stained with Cell Trace Far Red (0.5 μM, ThermoFisher) and K562 BCMA cells were stained with Cell Trace Violet (2.5 μM, ThermoFisher). […] 50 μL of each well was analysed on a Cytoflex S (Beckman Coulter) and data was analysed using FlowJo (FlowJo). The percentage of surviving K562 and K562 BCMA cells was calculated by dividing the number of K562 and K562 BCMA cells in each condition by the number of K562 and K562 BCMA cells found following co-culture with UT T-cells in 0 μM BI224436.
(Flow cytometry measures light scatter and fluorescence of single cells or particles in a stream.)

Data set [7] has as its system K562 cells (BCMA negative). The data set can be described thus: Flow cytometry cytotoxicity assay, BCMA-negative target cells. Format: cell-based. As to conditions: transduced primary T-cells, K562 WT, 1:1 or 4:1 effector:target, 48 hours. Here is the method:
as §1
T-cells were transduced with lentiviral vectors encoding for CONSTRUCT 14 or CONSTRUCT 10. […] Measurements were made using a Cytoflex S (Beckman Coulter) and data analysed using FlowJo (FlowJo).
K562 BCMA cells (BCMA positive) were cultured in Jurkat media plus 0.8 mg/mL G418 (Gibco) and K562 cells (BCMA negative) were cultured in Jurkat media. […] 50 μL of each well was analysed on a Cytoflex S (Beckman Coulter) and data was analysed using FlowJo (FlowJo). The percentage of surviving K562 and K562 BCMA cells was calculated by dividing the number of K562 and K562 BCMA cells in each condition by the number of K562 and K562 BCMA cells found following co-culture with UT T-cells in 0 μM BI224436.

For `Cc1nc2ccccc2c(-c2ccc3c4c(ccnc24)CCO3)c1[C@H](OC(C)(C)C)C(=O)O` [BI224436, 3-Quinolineacetic acid, 4-(2,3-dihydropyrano[4,3,2-de]quinolin-7-yl)-α-(1,1-dimethylethoxy)-2-methyl-,(αS,4R)-], the “IC50 concentration relative to plasma concentrations in human subjects” value in data set [1] is listed as 10 fold. Also, the “Effect of BI224436 on NFAT activation” value in data set [2] (Jurkat cells transfected with Construct 6) is “preserved”; in data set [2] (Jurkat cells transfected with Construct 7), “preserved”; in data set [2] (Jurkat cells transfected with Constructs 1 to 4), “does not reduce the level of activation”. Besides, in data set [3] (Homo sapiens, T-cell, primary T-cells transduced with Construct 13, stimulated with ARH-77-10B5, 24 hours, read-out: IC50 concentration for cytokine release (TNF-alpha, IL-2, IFN-gamma)), the IC50 is 100 nM. Moreover, the “Effect of BI224436 concentration on level of TNF-alpha, IL-2 and IFN-gamma release” value in data set [3] (primary T-cells transduced with Construct 13, 0.001-10 μM titration) was “tunes the level”. Moreover, the “Effect of compound on cytokine release” value in data set [4] was “attenuated”. For the same molecule, the “Effect of BI224436 on cytotoxic response” value in data set [5] is “reduced”. For the same molecule, the entries for the “Effect of BI224436 on cytotoxicity” value in data set [6] (T-cells transduced with OFF-switch CAR (Construct 10)) and in data set [6] (T-cells transduced with conventional CAR (Construct 14)) were “effectively attenuates” and “does not affect”, respectively.

B1: Construct 14: conventional single chain CAR (SEQ ID NO: 52) that uses components from CONSTRUCT 10 (protein)
chain: MALPVTALLLPLALLLHAARPQVQLVQSGAEVKKPGSSVKVSCKGSGYTFTNYWMHWVRQAPGQGLEWIGATYRGHSDTYYNQKFKGRATLTADTSTSTAYMELSSLRSEDTAVYYCTRGAIYDGYDVLDNWGQGTLVTVSSGGGGSGGGGSGGGGSGGGGSDIQMTQSPSSLSASVGDRVTITCSASQDISNYLNWYQQKPGKAPKLLIYYTSNLHSGVPSRFSGSGSGTDFTLTISSLQPEDFATYYCQQYRKLPWTFGQGTKLEIKRFVPVFLPAKPTTTPAPRPPTPAPTIASQPLSLRPEACRPAAGGAVHTRGLDFACDIYIWAPLAGTCGVLLLSLVITLYCNHRNKRGRKKLLYIFKQPFMRPVQTTQEEDGCSCRFPEEEEGGCELRVKFSRSADAPAYQQGQNQLYNELNLGRREEYDVLDKRRGRDPEMGGKPRRKNPQEGLYNELQKDKMAEAYSEIGMKGERRRGKGHDGLYQGLSTATKDTYDALHMQALPPR
modifications: Construct 14 amino acid sequence
As to B1, in data set [7], the “Killing of BCMA-negative cells” value is reported as “not BCMA-negative cells”. Moreover, in data set [6] (transduced primary T-cells, K562 BCMA, 1:1 or 4:1 effector:target, 48 hours), the “Killing of BCMA-positive cells” value is listed as “kill BCMA-positive cells”.

The values above are taken from US20220323494A1, “Novel Control Switch” (GlaxoSmithKline Intellectual Property Development Limited, priority 2018, published 2022).
